Source: US20220144799A1, “PESTICIDALLY ACTIVE HETEROCYCLIC DERIVATIVES WITH SULFUR CONTAINING SUBSTITUENTS” (SYNGENTA CROP PROTECTION AG, priority 2019, published 2022)

Tests used:
Assay type in all cases: in vivo
[1] = test system: Myzus persicae (Green Peach Aphid); experiment: Activity against Myzus persicae (green peach aphid), systemic activity, pea seedling roots in test solution; details: 144 h, test rate of 24 ppm, aphid population of mixed ages, 6 days after placing seedlings into test solutions
Procedure: Example B6: Activity Against Myzus persicae (Green Peach Aphid) Systemic Activity
Roots of pea seedlings infested with an aphid population of mixed ages were placed directly into aqueous test solutions prepared from 10′000 DMSO stock solutions. The samples were assessed for mortality 6 days after placing seedlings into test solutions.

[2] = test system: Myzus persicae (Green Peach Aphid); experiment: Activity against Myzus persicae (green peach aphid), feeding/contact activity, sunflower leaf discs; details: foliar, 144 h, application rate of 200 ppm, aphid population of mixed ages, 6 days after infestation
Procedure: Example B5: Activity Against Myzus persicae (Green Peach Aphid) Feeding/Contact Activity
Sunflower leaf discs were placed onto agar in a 24-well microtiter plate and sprayed with aqueous test solutions prepared from 10′000 ppm DMSO stock solutions. After drying, the leaf discs were infested with an aphid population of mixed ages. The samples were assessed for mortality 6 days after infestation.

[3] = test system: Plutella xylostella (Diamond Back Moth); experiment: Activity against Plutella xylostella (diamond back moth), treated artificial diet; details: 192 h, application rate of 200 ppm, Plutella eggs, 8 days after infestation, read-out: effect in at least one of the two categories (mortality or growth inhibition)
Procedure: Example B4: Activity Against Plutella xylostella (Diamond Back Moth)
24-well microtiter plates with artificial diet were treated with aqueous test solutions prepared from 10′000 ppm DMSO stock solutions by pipetting. After drying, Plutella eggs were pipetted through a plastic stencil onto a gel blotting paper and the plate was closed with it. The samples were assessed for mortality and growth inhibition in comparison to untreated samples 8 days after infestation.
(§1) The following compounds gave an effect of at least 80% in at least one of the two categories (mortality or growth inhibition) at an application rate of 200 ppm: […]

[4] = test system: Euschistus heros (Neotropical Brown Stink Bug); experiment: Activity against Euschistus heros (neotropical brown stink bug), sprayed soybean leaves; details: 120 h, application rate of 200 ppm, N2 nymphs, 5 days after infestation, read-out: effect in at least one of the two categories (mortality or growth inhibition)
Procedure: Example B3: Activity Against Euschistus heros (Neotropical Brown Stink Bug)
Soybean leaves on agar in 24-well microtiter plates were sprayed with aqueous test solutions prepared from 10′000 ppm DMSO stock solutions. After drying the leaves were infested with N2 nymphs. The samples were assessed for mortality and growth inhibition in comparison to untreated samples 5 days after infestation.
as §1

[5] = test system: Bemisia tabaci (Cotton White Fly); experiment: Activity against Bemisia tabaci (cotton white fly), sprayed cotton leaf discs; details: foliar, 144 h, application rate of 200 ppm, adult white flies, 6 days after incubation
Procedure: Example B1: Activity Against Bemisia tabaci (Cotton White Fly)
Cotton leaf discs were placed on agar in 24-well microtiter plates and sprayed with aqueous test solutions prepared from 10′000 ppm DMSO stock solutions. After drying the leaf discs were infested with adult white flies. The samples were checked for mortality 6 days after incubation.

[6] = test system: Diabrotica Balteata (Corn Root Worm); experiment: Activity against Diabrotica balteata (corn root worm), sprayed maize sprouts; details: 96 h, application rate of 200 ppm, L2 larvae, 4 days after infestation, read-out: effect in at least one of the two categories (mortality or growth inhibition)
Procedure: Example B2: Activity Against Diabrotica Balteata (Corn Root Worm)
Maize sprouts placed onto an agar layer in 24-well microtiter plates were treated with aqueous test solutions prepared from 10′000 ppm DMSO stock solutions by spraying. After drying, the plates were infested with L2 larvae (6 to 10 per well). The samples were assessed for mortality and growth inhibition in comparison to untreated samples 4 days after infestation.
as §1

[7] = test system: Spodoptera littoralis (Egyptian Cotton Leaf Worm); experiment: Activity against Spodoptera littoralis (Egyptian cotton leaf worm), sprayed cotton leaf discs; details: foliar, 72 h, application rate of 200 ppm, L1 larvae, 3 days after infestation
Procedure: Example B7: Activity Against Spodoptera littoralis (Egyptian Cotton Leaf Worm)
Cotton leaf discs were placed onto agar in 24-well microtiter plates and sprayed with aqueous test solutions prepared from 10′000 ppm DMSO stock solutions. After drying the leaf discs were infested with five L1 larvae. The samples were assessed for mortality, anti-feeding effect, and growth inhibition in comparison to untreated samples 3 days after infestation. Control of Spodoptera littoralis by a test sample is given when at least one of the categories mortality, anti-feedant effect, and growth inhibition is higher than the untreated sample.

CCSc1cccnc1-c1ncc(OCC(F)(F)C(F)(F)F)c(=O)n1C [Compound P1, 2-(3-ethylsulfanyl-2-pyridyl)-3-methyl-5-(2,2,3,3,3-pentafluoro-propoxy)pyrimidin-4-one]
≥ 80%: mortality at 24 ppm [1] | mortality at 200 ppm [2] | percent effect (mortality or growth inhibition) at 200 ppm [3] | percent effect (mortality or growth inhibition) at 200 ppm [4] | mortality at 200 ppm [5] | percent effect (mortality or growth inhibition) at 200 ppm [6]

CCS(=O)(=O)c1ccc(N(C)C(=O)C2CC2)nc1-c1ncc(OCC(F)(F)C(F)(F)F)c(=O)n1C [Compound P16, N-[5-ethylsulfonyl-6-[1-methyl-6-oxo-5-(2,2,3,3,3-pentafluoropropoxy)pyrimidin-2-yl]-2-pyridyl]-N-methyl-cyclo-propanecarboxamide]
≥ 80%: mortality at 24 ppm [1] | mortality at 200 ppm [2] | percent effect (mortality or growth inhibition) at 200 ppm [3] | percent effect (mortality or growth inhibition) at 200 ppm [4] | mortality at 200 ppm [5] | percent effect (mortality or growth inhibition) at 200 ppm [6] | percent control (mortality, anti-feedant effect or growth inhibition) at 200 ppm [7]

CCS(=O)(=O)c1cc(C(C)(C)C#N)cnc1-c1ncc(OCC(F)(F)C(F)(F)F)c(=O)n1C [Compound P13, 2-[5-ethylsulfonyl-6-[1-methyl-6-oxo-5-(2,2,3,3,3-pentafluoropropoxy)pyrimidin-2-yl]-3-pyridyl]-2-methyl-propanenitrile]
≥ 80%: mortality at 24 ppm [1] | percent effect (mortality or growth inhibition) at 200 ppm [3] | percent effect (mortality or growth inhibition) at 200 ppm [4] | mortality at 200 ppm [5] | percent effect (mortality or growth inhibition) at 200 ppm [6] | percent control (mortality, anti-feedant effect or growth inhibition) at 200 ppm [7]

CCS(=O)(=O)c1cccnc1-c1ncc(OCC(F)(F)C(F)(F)F)c(=O)n1C [Compound P2, 2-(3-ethylsulfonyl-2-pyridyl)-3-methyl-5-(2,2,3,3,3-pentafluoro-propoxy)pyrimidin-4-one]
≥ 80%: mortality at 24 ppm [1] | mortality at 200 ppm [2] | percent effect (mortality or growth inhibition) at 200 ppm [3] | percent effect (mortality or growth inhibition) at 200 ppm [4] | mortality at 200 ppm [5] | percent effect (mortality or growth inhibition) at 200 ppm [6] | percent control (mortality, anti-feedant effect or growth inhibition) at 200 ppm [7]

CCS(=O)(=O)c1ccc(N(C)C(=O)NC)nc1-c1ncc(OCC(F)(F)C(F)(F)F)c(=O)n1C [Compound P15, 1-[5-ethylsulfonyl-6-[1-methyl-6-oxo-5-(2,2,3,3,3-pentafluoropropoxy)pyrimidin-2-yl]-2-pyridyl]-1,3-dimethyl-urea]
≥ 80%: mortality at 24 ppm [1] | mortality at 200 ppm [2] | percent effect (mortality or growth inhibition) at 200 ppm [4]

CCS(=O)(=O)c1ccc(N(C)C(C)=O)nc1-c1ncc(OCC(F)(F)C(F)(F)F)c(=O)n1C [Compound P9, N-[5-ethylsulfonyl-6-[1-methyl-6-oxo-5-(2,2,3,3,3-pentafluoropropoxy)-pyrimidin-2-yl]-2-pyridyl]-N-methyl-acetamide]
≥ 80%: mortality at 24 ppm [1] | mortality at 200 ppm [2] | percent effect (mortality or growth inhibition) at 200 ppm [3] | mortality at 200 ppm [5] | percent effect (mortality or growth inhibition) at 200 ppm [6]

CCS(=O)(=O)c1cc(Oc2ccccn2)cnc1-c1ncc(OCC(F)(F)C(F)(F)F)c(=O)n1C [Compound P20, 2-[3-ethylsulfonyl-5-(2-pyridyloxy)-2-pyridyl]-3-methyl-5-(2,2,3,3,3-pentafluoropropoxy) pyrimidin-4-one]
≥ 80%: mortality at 24 ppm [1] | mortality at 200 ppm [2] | percent effect (mortality or growth inhibition) at 200 ppm [3] | percent effect (mortality or growth inhibition) at 200 ppm [4] | percent effect (mortality or growth inhibition) at 200 ppm [6] | percent control (mortality, anti-feedant effect or growth inhibition) at 200 ppm [7]

CCS(=O)(=O)c1cc(C2(C#N)CC2)cnc1-c1ncc(OCC(F)(F)C(F)(F)F)c(=O)n1C [Compound P11, 1-[5-ethylsulfonyl-6-[1-methyl-6-oxo-5-(2,2,3,3,3-pentafluoropropoxy)-pyrimidin-2-yl]-3-pyridyl]cyclopropanecarbonitrile]
≥ 80%: mortality at 24 ppm [1] | mortality at 200 ppm [2] | percent effect (mortality or growth inhibition) at 200 ppm [3] | percent effect (mortality or growth inhibition) at 200 ppm [4] | mortality at 200 ppm [5] | percent effect (mortality or growth inhibition) at 200 ppm [6] | percent control (mortality, anti-feedant effect or growth inhibition) at 200 ppm [7]

CCS(=O)(=O)c1cc(C2CC2)cnc1-c1ncc(OCC(F)(F)C(F)(F)F)c(=O)n1C [Compound P18, 2-(5-cyclopropyl-3-ethylsulfonyl-2-pyridyl)-3-methyl-5-(2,2,3,3,3-pentafluoropropoxy) pyrimidin-4-one]
≥ 80%: mortality at 24 ppm [1] | mortality at 200 ppm [2] | percent effect (mortality or growth inhibition) at 200 ppm [3] | percent effect (mortality or growth inhibition) at 200 ppm [4] | percent effect (mortality or growth inhibition) at 200 ppm [6] | percent control (mortality, anti-feedant effect or growth inhibition) at 200 ppm [7]

CCS(=O)(=O)c1cc(N(C)C(C)=O)cnc1-c1ncc(OCC(F)(F)C(F)(F)F)c(=O)n1C [Compound P5, N-[5-ethylsulfonyl-6-[1-methyl-6-oxo-5-(2,2,3,3,3-pentafluoropropoxy)-pyrimidin-2-yl]-3-pyridyl]-N-methyl-acetamide]
≥ 80%: mortality at 24 ppm [1] | mortality at 200 ppm [2] | percent effect (mortality or growth inhibition) at 200 ppm [3] | percent effect (mortality or growth inhibition) at 200 ppm [4] | percent effect (mortality or growth inhibition) at 200 ppm [6]

CCS(=O)(=O)c1ccc(-n2cncn2)nc1-c1ncc(OCC(F)(F)C(F)(F)F)c(=O)n1C [Compound P14, 2-[3-ethylsulfonyl-6-(1,2,4-triazol-1-yl)-2-pyridyl]-3-methyl-5-(2,2,3,3,3-pentafluoropropoxy) pyrimidin-4-one]
≥ 80%: mortality at 24 ppm [1] | mortality at 200 ppm [2] | percent effect (mortality or growth inhibition) at 200 ppm [3] | percent effect (mortality or growth inhibition) at 200 ppm [4] | mortality at 200 ppm [5] | percent effect (mortality or growth inhibition) at 200 ppm [6] | percent control (mortality, anti-feedant effect or growth inhibition) at 200 ppm [7]
